Assay results reported in patent publication EP1247803A2, “Indolinone compounds suitable for modulation of protein kinases” (Sugen, Inc., priority 1996, dated 1998).

What follows are molecules tested against T1, FLK-1 receptor (Mus musculus, UniProt P35918) (assay: FLK-1 ELISA (kinase activity of the FLK-1 receptor in FLK-1/NIH3T3 cells, VEGF stimulated)).
T1 construct: expressed in transfected cells; host or cells: NIH3T3 C7#3
Format: cell-based
Outline: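 FLK-1-expressing NIH3T3 C7#3 cells, starved overnight in 0.1% FBS medium, were treated with compounds at a 1:200 final dilution (0.5% DMSO) for 2 h at 37 °C, with VEGF stimulation. FLK-1 kinase activity was read by ELISA on anti-rabbit IgG plates using affinity-purified anti-FLK-1 antiserum.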

T1 sequence (P35918 20-1345): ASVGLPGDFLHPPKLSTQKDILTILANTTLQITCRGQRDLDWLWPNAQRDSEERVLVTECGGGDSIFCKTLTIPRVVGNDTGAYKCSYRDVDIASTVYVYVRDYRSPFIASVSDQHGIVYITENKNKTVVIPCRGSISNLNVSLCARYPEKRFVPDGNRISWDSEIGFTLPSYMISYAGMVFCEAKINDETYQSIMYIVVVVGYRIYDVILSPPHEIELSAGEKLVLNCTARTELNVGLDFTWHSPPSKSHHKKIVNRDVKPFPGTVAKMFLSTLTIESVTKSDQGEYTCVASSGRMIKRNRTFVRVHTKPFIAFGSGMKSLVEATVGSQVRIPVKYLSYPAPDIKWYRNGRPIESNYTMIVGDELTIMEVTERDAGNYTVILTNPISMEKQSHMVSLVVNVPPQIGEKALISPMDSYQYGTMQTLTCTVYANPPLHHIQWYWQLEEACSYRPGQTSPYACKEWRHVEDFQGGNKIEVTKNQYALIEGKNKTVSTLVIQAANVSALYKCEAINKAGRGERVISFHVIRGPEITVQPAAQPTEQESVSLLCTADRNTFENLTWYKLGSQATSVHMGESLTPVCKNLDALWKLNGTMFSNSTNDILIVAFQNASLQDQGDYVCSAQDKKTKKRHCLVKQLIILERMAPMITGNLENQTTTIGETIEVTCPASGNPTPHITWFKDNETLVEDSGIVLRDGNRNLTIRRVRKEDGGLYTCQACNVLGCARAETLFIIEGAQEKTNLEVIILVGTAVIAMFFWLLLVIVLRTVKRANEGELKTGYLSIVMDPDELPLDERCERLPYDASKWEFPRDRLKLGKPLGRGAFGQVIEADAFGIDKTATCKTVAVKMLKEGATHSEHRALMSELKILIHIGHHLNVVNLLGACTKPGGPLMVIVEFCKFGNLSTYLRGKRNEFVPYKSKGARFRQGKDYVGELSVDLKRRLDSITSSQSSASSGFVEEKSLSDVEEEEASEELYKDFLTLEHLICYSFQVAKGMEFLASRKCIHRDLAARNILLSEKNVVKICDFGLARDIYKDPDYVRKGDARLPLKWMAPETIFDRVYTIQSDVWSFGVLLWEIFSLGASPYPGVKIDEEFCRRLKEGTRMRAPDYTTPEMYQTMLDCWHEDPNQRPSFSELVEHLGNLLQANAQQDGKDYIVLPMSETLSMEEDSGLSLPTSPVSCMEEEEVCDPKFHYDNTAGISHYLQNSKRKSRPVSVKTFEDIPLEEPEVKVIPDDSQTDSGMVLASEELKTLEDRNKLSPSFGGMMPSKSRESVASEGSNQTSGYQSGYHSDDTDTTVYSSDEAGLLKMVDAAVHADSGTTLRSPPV

Question: With COc1cc(Br)cc(C=C2C(=O)Nc3ccc(S(=O)(=O)N4CCOCC4)cc32)c1O [10733/F08] as the molecule, how does the “Fik Kinase %Inhibition” value read?
Answer: Its value is -13.2%.

Question: With COc1cc(Br)cc(C=C2C(=O)Nc3ccc(CCCl)cc32)c1O [10733/G08] as the molecule, how does the “Fik Kinase %Inhibition” value read?
Answer: Its value is 2.5%.

Question: CCOC(=O)c1cc(C=C2C(=O)Nc3ccc(S(=O)(=O)Nc4ccc(C(F)(F)F)cc4)cc32)oc1C [10718/E06] was tested. Which “Fik Kinase %Inhibition” value did it give?
Answer: Its value is 15.4%.

Question: For Cc1c(Br)ccc2c1C(=Cc1ccc(Br)s1)C(=O)N2 [10734/C11], which “Fik Kinase %Inhibition” value is on record?
Answer: Its value is 6.3%.

Question: For Cc1cc(C=C2C(=O)Nc3ccc(S(=O)(=O)Nc4ccc(C(F)(F)F)cc4)cc32)cc(C)c1OCc1ccccc1 [10733/E07], which “Fik Kinase %Inhibition” value is on record?
Answer: The value was 13.2%.

Question: How did the “Fik Kinase %Inhibition” value turn out when CNS(=O)(=O)c1ccc2c(c1)C(=Cc1cc(Br)cc(Br)c1O)C(=O)N2 [10734/D07] was run?
Answer: Its value is 14.7%.

Question: With CCN(CC)c1ccc(C=C2C(=O)Nc3c(Br)cc(Br)cc32)c(O)c1 [10734/A05] as the molecule, how does the “Fik Kinase %Inhibition” value read?
Answer: The value was 9.1%.

Question: O=C1Nc2c(Br)cc(Br)cc2C1=Cc1cccc(F)c1O [10734/A08] was tested. Which “Fik Kinase %Inhibition” value did it give?
Answer: The value was 0.1%.

Question: For Cc1c(Br)ccc2c1C(=Cc1ccc(C(C)(C)C)cc1)C(=O)N2 [10734/C10], which “Fik Kinase %Inhibition” value is on record?
Answer: The value was 10.1%.

Question: Cc1c(Br)ccc2c1C(=Cc1ccc(O)c(Br)c1)C(=O)N2 [10734/C09] was tested. Which “Fik Kinase %Inhibition” value did it give?
Answer: The value was -13.3%.

Question: CC(C)(C)c1cc(C=C2C(=O)Nc3ccc(CCCl)cc32)cc(I)c1OCc1ccccc1 [10733/G02] was tested. Which “Fik Kinase %Inhibition” value did it give?
Answer: The value was 8.3%.

Question: Which “Fik Kinase %Inhibition” value does the source give for O=C1Nc2ccc(S(=O)(=O)Nc3ccc(C(F)(F)F)cc3)cc2C1=Cc1cc(Br)ccc1O [10733/E09] here?
Answer: Its value is 13.4%.
